Test: xn = mol fraction of the nth substance listed

CCCCn1cc[n+](C)c1.O=S(=O)([N-]S(=O)(=O)C(F)(F)F)c1ccc[cH-]1.[Fe+2].c1cc[cH-]c1 + CCCC[n+]1ccn(C)c1.O=S(=O)([N-]S(=O)(=O)C(F)(F)F)C(F)(F)F
Settings	viscosity [mPa·s]
298.15 K, 100 kPa, x2 = 0.749	184.5

CCO + CCCC[n+]1ccn(C)c1.O=S(=O)([N-]S(=O)(=O)C(F)(F)F)C(F)(F)F
100 kPa, x2 = 0
Settings	viscosity [mPa·s]
297.55 K	1.11
297.85 K	1.1
298.15 K	1.1
301.48 K	1.04
303.3 K	1.01
309.67 K	0.91
312.7 K	0.86
313 K	0.86
313.3 K	0.85
313.61 K	0.85
316.33 K	0.8
319.36 K	0.76
319.67 K	0.76

Cc1ncc(CO)c(CO)c1O.Cl + CCCC[n+]1ccn(C)c1.[Br-] + O
viscosity [mPa·s], 100 kPa
Settings	x1 = 0.0002684, x2 = 0	x1 = 0.0005421, x2 = 0	x1 = 0.0008084, x2 = 0	x1 = 0.001085, x2 = 0	x1 = 0.001353, x2 = 0	x1 = 0.001621, x2 = 0
293.15 K	1.007	1.012	1.017	1.022	1.027	1.032
298.15 K	0.895	0.9	0.905	0.91	0.915	0.921
303.15 K	0.801	0.806	0.811	0.816	0.821	0.826
308.15 K	0.722	0.727	0.732	0.737	0.741	0.747
313.15 K	0.657	0.662	0.667	0.671	0.676	0.681

CCO + CCCC[n+]1ccn(C)c1.[Cl-]
Settings	viscosity [mPa·s]
303.15 K, 101 kPa, x1 = 1	0.99

CCO + CCCC[n+]1ccn(C)c1.[I-]
Settings	electrical conductivity [S/m]
298.15 K, 100 kPa, x2 = 0	3.98e-05

CC[S+](CC)CC.O=S(=O)([N-]S(=O)(=O)C(F)(F)F)C(F)(F)F + CCCO
Settings	viscosity [mPa·s]
313.15 K, 100 kPa, x1 = 0.6987	10.75

CCCCCC[N+]1(C)CCCC1.O=S(=O)([N-]S(=O)(=O)C(F)(F)F)C(F)(F)F + CCC[N+]1(C)CCCC1.O=S(=O)([N-]S(=O)(=O)C(F)(F)F)C(F)(F)F
101 kPa
Settings	electrical conductivity, 313.15 K [S/m]	electrical conductivity, 353.15 K [S/m]	viscosity, 313.15 K [mPa·s]	viscosity, 353.15 K [mPa·s]
x1 = 0.25	0.581	–	38.6	–
x1 = 0.5	–	1.23	–	13.2

Oc1cccc(O)c1O + CCC[N+](CCC)(CCC)CCC.[Br-]
101.3 kPa, x2 = 0.5
Settings	electrical conductivity [S/m]	viscosity [mPa·s]
293.15 K	0.00158	36500
298.15 K	0.00309	–
303.15 K	0.00531	17000
308.15 K	0.0126	11500
313.15 K	0.0186	6800
333.15 K	0.0967	850

CCO + CCOC(C)(C)C + CCOS(=O)(=O)[O-].CC[n+]1ccn(C)c1
Settings	viscosity [mPa·s]
298.15 K, 101 kPa, x1 = 1, x2 = 0	1.077

CCO + CCOP(=O)([O-])OCC.CC[N+]1(C)CCCC1
100 kPa, x2 = 0
Settings	viscosity [mPa·s]
293.15 K	1.18
298.15 K	1.11
303.15 K	0.98
308.15 K	0.89
313.15 K	0.82
318.15 K	0.75
323.15 K	0.69
328.15 K	0.65
333.15 K	0.6
338.15 K	0.56

— the CheMixHub ionic liquid set
